# Experimental data published in ChEMBL document CHEMBL1201862, “PubChem BioAssay data set” (2004).
#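 Interpolation was linear, between the two tested concentrations surrounding the appropriate level; five concentrations were tested over 48 hours in 96-well plates. GI50 marks 50% less growth.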 Calls of active or inactive are those of the source. Cut-off read from the data, not from the text of the source: active = GI50 up to about 1.1 µM and inactive = higher.
# Columns and labels:
# Experiment in all cases: growth of human tumour cells (NCI), 48 h
# HCT-116 = tested on: HCT-116
# HCT-15 = tested on: HCT-15
# HOP-62 = tested on: HOP-62
# HT-29 = tested on: HT-29
# IGROV-1 = tested on: IGROV-1
# KM12 = tested on: KM12
# LOX IMVI = tested on: LOX IMVI
# MOLT-4 = tested on: MOLT-4
# Malme-3M = tested on: Malme-3M
# NCI-H226 = tested on: NCI-H226
# NCI-H522 = tested on: NCI-H522
# OVCAR-4 = tested on: OVCAR-4
# RPMI-8226 = tested on: RPMI-8226
# SK-MEL-5 = tested on: SK-MEL-5
# T47D = tested on: T47D
# NCI-H460 = tested on: NCI-H460
# SK-MEL-28 = tested on: SK-MEL-28
# Hs-578T = tested on: Hs-578T
# RXF 393 = tested on: RXF 393
Structure (SMILES),GI50 (HCT-116),GI50 (HCT-15) [µM],GI50 (HOP-62),GI50 (HT-29),GI50 (IGROV-1),GI50 (KM12),GI50 (LOX IMVI),GI50 (MOLT-4),GI50 (Malme-3M),GI50 (NCI-H226),GI50 (NCI-H522),GI50 (OVCAR-4),GI50 (RPMI-8226),GI50 (SK-MEL-5),GI50 (T47D),GI50 (NCI-H460),GI50 (SK-MEL-28),GI50 (Hs-578T),GI50 (RXF 393)
OC12COc3ccccc3C1Oc1ccccc1C2 (centres undefined),> 100 µM (inactive),> 100,> 100 µM (inactive),> 100 µM (inactive),> 100 µM (inactive),> 100 µM (inactive),> 100 µM (inactive),> 100 µM (inactive),> 100 µM (inactive),> 100 µM (inactive),> 100 µM (inactive),> 100 µM (inactive),> 100 µM (inactive),> 100 µM (inactive),> 100 µM (inactive),–,–,–,–
CCCCN(CCCC)CCC(O)c1cc2c(Cl)cc(Cl)cc2c2cc(C(F)(F)F)ccc12 (centres undefined),12.2 µM (inactive),5.4,10 µM (inactive),13.6 µM (inactive),12.7 µM (inactive),–,6.52 µM (inactive),8.57 µM (inactive),16.4 µM (inactive),–,17.5 µM (inactive),4.78 µM (inactive),8.36 µM (inactive),–,12.8 µM (inactive),10.3 µM (inactive),16.7 µM (inactive),–,–
O=C1Nc2c(Cl)cc(Cl)cc2/C1=N/NC(=O)c1ccncc1,19.1 µM (inactive),32.1,25.8 µM (inactive),27.4 µM (inactive),22.9 µM (inactive),30.9 µM (inactive),16.9 µM (inactive),25.2 µM (inactive),16.9 µM (inactive),47.2 µM (inactive),–,22.2 µM (inactive),–,17.9 µM (inactive),–,46.7 µM (inactive),22.6 µM (inactive),40.6 µM (inactive),20 µM (inactive)
C=CCN1C(=O)CC(=O)N(NC2=NNC3(C(=O)N2)c2ccccc2-c2ccccc23)C1=S,28.4 µM (inactive),35.7,26.7 µM (inactive),37.9 µM (inactive),38.9 µM (inactive),–,42.7 µM (inactive),–,38 µM (inactive),13.8 µM (inactive),32.6 µM (inactive),29.4 µM (inactive),–,31.4 µM (inactive),–,26.1 µM (inactive),49.9 µM (inactive),13.6 µM (inactive),27.7 µM (inactive)
CCOC(=O)N(C)C(=C(F)F)C(F)(F)F,20.4 µM (inactive),16.3,25.2 µM (inactive),27 µM (inactive),21.2 µM (inactive),35 µM (inactive),23 µM (inactive),21.7 µM (inactive),14.6 µM (inactive),19.2 µM (inactive),–,28 µM (inactive),16.4 µM (inactive),15.7 µM (inactive),26.8 µM (inactive),28.6 µM (inactive),20 µM (inactive),30.4 µM (inactive),–
Cc1ccc(S(=O)(=O)C2=Cc3ccccc3C2(O)c2ccccc2)cc1 (centres undefined),33.3 µM (inactive),32.7,> 10 µM (inactive),19.7 µM (inactive),47.1 µM (inactive),21.4 µM (inactive),17.6 µM (inactive),29.2 µM (inactive),–,29.3 µM (inactive),21.5 µM (inactive),–,15.8 µM (inactive),16.6 µM (inactive),34.3 µM (inactive),22.7 µM (inactive),16.3 µM (inactive),22.6 µM (inactive),–
CC1(C)CC2=C(Sc3ccccc3N2)C(=O)C1C(=O)C(=O)Nc1cccc([N+](=O)[O-])c1 (centres undefined),> 100 µM (inactive),> 100,–,> 100 µM (inactive),> 100 µM (inactive),44 µM (inactive),> 100 µM (inactive),33 µM (inactive),> 100 µM (inactive),> 100 µM (inactive),> 100 µM (inactive),82.4 µM (inactive),64.6 µM (inactive),> 100 µM (inactive),> 100 µM (inactive),> 100 µM (inactive),> 100 µM (inactive),> 100 µM (inactive),–
CC(C)(C)OC(=O)Cn1ncn(NC(=O)Cc2ccccc2)c1=O,> 10 µM (inactive),> 10,> 10 µM (inactive),> 10 µM (inactive),> 10 µM (inactive),> 10 µM (inactive),> 10 µM (inactive),> 10 µM (inactive),> 10 µM (inactive),> 10 µM (inactive),> 10 µM (inactive),> 10 µM (inactive),–,> 10 µM (inactive),> 10 µM (inactive),> 10 µM (inactive),> 10 µM (inactive),> 10 µM (inactive),–
CC1=C(c2ccccc2)NC(=S)C(C)C(c2ccccc2)=N1 (centres undefined),27.5 µM (inactive),25.8,> 100 µM (inactive),32.4 µM (inactive),36.9 µM (inactive),21.2 µM (inactive),30 µM (inactive),15.2 µM (inactive),32.7 µM (inactive),52.4 µM (inactive),–,17.2 µM (inactive),15.4 µM (inactive),24.9 µM (inactive),15.8 µM (inactive),34.4 µM (inactive),38.9 µM (inactive),–,21.7 µM (inactive)
COC1CC(OC2C(C)OC(OC3C(C)OC(OC4C(O)CC(O[C@H]5CC[C@@]6(C)C(=CC[C@]7(O)[C@@H]6C[C@@H](OC(=O)/C=C/c6ccccc6)[C@@]6(C)[C@]7(O)CC[C@@]6(O)C(C)=O)C5)OC4C)CC3OC)CC2OC)OC(C)C1O (some centres undefined),> 6.25 µM (inactive),> 6.25,> 6.25 µM (inactive),> 6.25 µM (inactive),> 6.25 µM (inactive),> 6.25 µM (inactive),> 6.25 µM (inactive),> 6.25 µM (inactive),> 6.25 µM (inactive),> 6.25 µM (inactive),> 6.25 µM (inactive),> 6.25 µM (inactive),> 6.25 µM (inactive),> 6.25 µM (inactive),> 6.25 µM (inactive),–,–,> 6.25 µM (inactive),–
CC(=O)Nc1cc(Nc2cc(O)nc(O)n2)ccc1C,> 100 µM (inactive),> 100,> 100 µM (inactive),–,> 100 µM (inactive),> 100 µM (inactive),> 100 µM (inactive),–,> 100 µM (inactive),> 100 µM (inactive),–,> 100 µM (inactive),> 100 µM (inactive),> 100 µM (inactive),–,> 100 µM (inactive),> 100 µM (inactive),> 100 µM (inactive),> 100 µM (inactive)
CCN(CC)CCC(=O)/C=C/c1ccc(Cl)c(Cl)c1,1.71 µM (inactive),3.66,> 10 µM (inactive),–,–,2.36 µM (inactive),–,3.01 µM (inactive),3.77 µM (inactive),> 10 µM (inactive),1.58 µM (inactive),9.35 µM (inactive),0.127 µM (active),–,2.33 µM (inactive),4.94 µM (inactive),–,–,–
CC1(O)CCC(C(C)(C)O)CC1 (centres undefined) [TERPIN],> 100 µM (inactive),> 100,> 100 µM (inactive),> 100 µM (inactive),16.1 µM (inactive),> 100 µM (inactive),> 100 µM (inactive),> 100 µM (inactive),–,> 100 µM (inactive),> 100 µM (inactive),> 100 µM (inactive),> 100 µM (inactive),> 100 µM (inactive),> 100 µM (inactive),> 100 µM (inactive),> 100 µM (inactive),> 100 µM (inactive),–
